The text below walks through data of patent US8722849B2, “Polypeptides” (Novo Nordisk A/S, priority 2011, dated 2014).

Data set [1] in a line: Assay (III) ThT fibrillation assay for physical stability. The conditions noted are these: ThT fibrillation assay. The class given is physicochemical. The text has this: ASSAY (III)—ThT Fibrillation Assays for the Assessment of Physical Stability of Protein formulations Low physical stability of a polypeptide may lead to amyloid fibril formation, which is observed as well-ordered, thread-like macromolecular structures in the sample eventually resulting in gel formation. This has traditionally been measured by visual inspection of the sample. However, that kind of measurement is very subjective and depending on the observer. Therefore, the application of a small molecule indicator probe is much more advantageous. Thioflavin T (ThT) is such a probe and has a distinct fluorescence signature when binding to fibrils [Naiki et al. (1989) Anal. Biochem. 177, 244-249; LeVine (1999) Methods. Enzymol. […], 274-284]. The time course for fibril formation can be described by a sigmoidal curve with the following expression [Nielsen et al. (2001) Biochemistry 40, 6036-6046]: [formula] Here, F is the ThT fluorescence at the time t. The constant t0 is the time needed to reach 50% of maximum fluorescence. […] Few of those intermediates nucleate to form a template onto which further intermediates may assembly and the fibrillation proceeds. The lag-time corresponds to the interval in which the critical mass of nucleus is built up and the apparent rate constant is the rate with which the fibril itself is formed. Sample Preparation Samples were prepared freshly before each assay. Each sample composition is described in each example. The pH of the sample was adjusted to the desired value using appropriate amounts of concentrated NaOH and HClO4 or HCl. Thioflavin T was added to the samples from a stock solution in H2O to a final concentration of 1 μM. Sample aliquots of 200 μl were placed in a 96 well microtiter plate (Packard OptiPlate™-96, white polystyrene). Usually, four or eight replica of each sample (corresponding to one test condition) were placed in one column of wells. The plate was sealed with Scotch Pad (Qiagen). Incubation and Fluorescence Measurement Incubation at given temperature, shaking and measurement of the ThT fluorescence emission were done in a Fluoroskan Ascent FL fluorescence platereader or Varioskan platereader (Thermo Labsystems). The temperature was adjusted to 37° C. The orbital shaking was adjusted to 960 rpm with an amplitude of 1 mm in all the presented data. Fluorescence measurement was done using excitation through a 444 nm filter and measurement of emission through a 485 nm filter. Each run was initiated by incubating the plate at the assay temperature for 10 min. The plate was measured every 20 minutes for a desired period of time. Between each measurement, the plate was shaken and heated as described. Data Handling The measurement points were saved in Microsoft Excel format for further processing and curve drawing and fitting was performed using GraphPad Prism. The background emission from ThT in the absence of fibrils was negligible. The data points are typically a mean of four or eight samples and shown with standard deviation error bars. Only data obtained in the same experiment (i.e. samples on the same plate) are presented in the same graph ensuring a relative measure of fibrillation between experiments. The data set may be fitted to Eq. (1). However, since full sigmodial curves in this case are not always achieved during the measurement time, the degree of fibrillation is expressed as ThT fluorescence tabulated as the mean of the samples and shown with the standard deviation at various time points. Measurement of Initial and Final Concentrations The polypeptide concentration in each of the tested formulations were measured both before application in the ThT fibrillation assay (“Initial”) and after completion of the ThT fibrillation (“After ThT assay”). Concentrations were determined by reverse HPLC methods using a pramlintide standard as a reference. Before measurement after completion 150 μl was collected from each of the replica and transferred to an Eppendorf tube. […]

In data set [2] the target is T1, human amylin receptor (amylin 3(a) receptor: human calcitonin receptor + RAMP-3) (Homo sapiens, UniProt O60896+P30988).
T1 construct: expressed in transfected cells; host or cells: BHK570
T1 sequence (P30988 25-474): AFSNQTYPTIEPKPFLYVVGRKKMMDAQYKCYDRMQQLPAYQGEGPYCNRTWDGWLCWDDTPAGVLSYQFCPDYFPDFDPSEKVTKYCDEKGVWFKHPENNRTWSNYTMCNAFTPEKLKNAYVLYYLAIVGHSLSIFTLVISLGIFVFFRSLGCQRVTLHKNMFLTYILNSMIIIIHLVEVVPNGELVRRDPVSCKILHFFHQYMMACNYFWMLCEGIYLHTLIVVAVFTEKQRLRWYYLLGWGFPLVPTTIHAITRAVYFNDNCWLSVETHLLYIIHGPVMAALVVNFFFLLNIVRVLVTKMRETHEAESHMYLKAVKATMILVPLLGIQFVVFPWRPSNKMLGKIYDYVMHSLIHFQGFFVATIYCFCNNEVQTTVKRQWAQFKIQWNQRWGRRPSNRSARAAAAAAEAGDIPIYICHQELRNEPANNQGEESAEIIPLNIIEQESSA
T1 sequence (O60896 24-148 partner): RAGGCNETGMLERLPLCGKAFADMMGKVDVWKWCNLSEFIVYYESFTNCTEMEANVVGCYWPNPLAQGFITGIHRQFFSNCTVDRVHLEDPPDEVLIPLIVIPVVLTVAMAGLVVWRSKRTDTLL
In words: Assay (II)a functional CRE-luciferase assay, human amylin receptor. It counts as cell-based.

Data set [3] deals with T2, human calcitonin receptor (Homo sapiens, UniProt P30988).
T2 construct: expressed in transfected cells; host or cells: BHK570
T2 sequence (P30988 25-474): T1 sequence (P30988 25-474)
The data set can be described thus: Assay (II)a functional CRE-luciferase assay, human calcitonin receptor. It counts as cell-based.

Data set [4] in a line: Assay (IV) determination of solubility. It counts as physicochemical. In outline: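 Eight 100 mM buffers (glycylglycine pH 3.0–5.0, bistrispropane pH 6.0–8.0) each received an equal volume of polypeptide dissolved in water at ~500 nmol/ml. Soluble polypeptide was measured by HPLC following 18 hours at room temperature and centrifugation.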
Setting [5] is: Table 7, human calcitonin (CTa) receptor.

Like-named read-outs stand apart in the source and are kept apart here. Starred links: 1 amine or outer side, 2 acyl side, 3 side chain; linkers in the order of their positions; H or OH if unused. Positions of bridges follow the written chain, without caps; N, C: chain ends. Residues, ends and D or L forms follow the SMILES beside them. *: point of attachment. C20 diacid = O=C(O)CCCCCCCCCCCCCCCCCCC(=O)*; γGlu = O=C(O)[C@H](CCC(=O)[*:2])N[*:1]; AEEA = NCCOCCOCC(=O)O Where only a bound is given, the exact number is not on record here.

As a reminder, the EC50 is the midpoint of the concentration-response curve. For `CC[C@H](C)[C@H](NC(=O)[C@@H]1CCCN1C(=O)CNC(=O)[C@H](Cc1ccccc1)NC(=O)[C@H](CC(N)=O)NC(=O)[C@H](CC(N)=O)NC(=O)[C@H](CO)NC(=O)[C@H](CO)NC(=O)[C@H](Cc1c[nH]cn1)NC(=O)[C@H](CCCNC(=N)N)NC(=O)[C@H](CC(C)C)NC(=O)[C@H](Cc1ccccc1)NC(=O)[C@H](CCC(=O)O)NC(=O)[C@H](C)NC(=O)[C@H](CC(C)C)NC(=O)[C@H](CCCNC(=N)N)NC(=O)[C@H](CCC(N)=O)NC(=O)[C@@H](NC(=O)[C@H](C)NC(=O)[C@@H]1CSSC[C@H](NC(=O)[C@H](CCCNC(=N)N)NC(=O)[C@H](CCC(=O)O)NC(=O)CC[C@H](NC(=O)CCCCCCCCCCCCCCCCCCC(=O)O)C(=O)O)C(=O)N[C@@H](CC(N)=O)C(=O)N[C@@H]([C@@H](C)O)C(=O)N[C@@H](C)C(=O)N[C@@H]([C@@H](C)O)C(=O)N1)[C@@H](C)O)C(=O)N[C@@H](CC(C)C)C(=O)N1CCC[C@H]1C(=O)N1CCC[C@H]1C(=O)N[C@H](C(=O)N[C@@H](CC(N)=O)C(=O)N[C@H](C(=O)NCC(=O)N[C@@H](CO)C(=O)N[C@@H](CC(N)=O)C(=O)N[C@H](C(=O)N1CCC[C@H]1C(N)=O)[C@@H](C)O)C(C)C)[C@@H](C)O` [Example 156, N-alpha-[(S)-4-Carboxy-4-(19-carboxynonadecanoylamino)butyryl]-Glu-[Arg1,Glu14,Arg17,Pro37]-pramlintide] ({C20 diacid-γGlu}-ERCNTATCATQRLAEFLRHSSNNFGPILPPTNVGSNTP-NH2; disulfide 3-8 (inferred)), in data set [1], the “ThT pH 4.0 lag time” value is listed as more than 45 h and the “ThT pH 4.0 lag time (h)” value was more than 45 h. Besides, the EC50 in data set [2] (Table 5) is 0.066 nM. Besides, in data set [3] (setting [5]), the EC50 was 0.168 nM.

As usually defined, the solubility is the concentration that dissolves in the medium under given conditions. Consider `CC[C@H](C)[C@H](NC(=O)[C@@H]1CCCN1C(=O)CNC(=O)[C@H](Cc1ccccc1)NC(=O)[C@H](CC(N)=O)NC(=O)[C@H](CCCCN)NC(=O)[C@H](CO)NC(=O)[C@H](CO)NC(=O)[C@H](Cc1c[nH]cn1)NC(=O)[C@H](Cc1c[nH]cn1)NC(=O)[C@H](CC(C)C)NC(=O)[C@H](Cc1ccccc1)NC(=O)[C@H](CCC(=O)O)NC(=O)[C@H](C)NC(=O)[C@H](CC(C)C)NC(=O)[C@H](CCCNC(=N)N)NC(=O)[C@H](CCC(N)=O)NC(=O)[C@@H](NC(=O)[C@H](C)NC(=O)[C@@H]1CSSC[C@H](NC(=O)[C@H](CCCCN)NC(=O)COCCOCCNC(=O)COCCOCCNC(=O)CC[C@H](NC(=O)CCCCCCCCCCCCCCCCCCC(=O)O)C(=O)O)C(=O)N[C@@H](CC(N)=O)C(=O)N[C@@H]([C@@H](C)O)C(=O)N[C@@H](C)C(=O)N[C@@H]([C@@H](C)O)C(=O)N1)[C@@H](C)O)C(=O)N[C@@H](CC(C)C)C(=O)N1CCC[C@H]1C(=O)N1CCC[C@H]1C(=O)N[C@H](C(=O)N[C@@H](CC(N)=O)C(=O)N[C@H](C(=O)NCC(=O)N[C@@H](CO)C(=O)N[C@@H](CC(N)=O)C(=O)N[C@H](C(=O)N1CCC[C@H]1C(N)=O)[C@@H](C)O)C(C)C)[C@@H](C)O` [Example 168, N-alpha-[2-(2-{2-[2-(2-{2-[(S)-4-Carboxy-4-(19-carboxyheptadecanoylamino)butyrylamino]ethoxy}ethoxy)acetylamino]ethoxy}ethoxy)acetyl]-[Glu14,His17,Lys21,Pro37]-pramlintide] ({C20 diacid-γGlu-AEEA-AEEA}-KCNTATCATQRLAEFLHHSSKNFGPILPPTNVGSNTP-NH2; disulfide 2-7), for which the EC50 in data set [2] (Table 2, BHK amylin 3(a)-receptor/CRE-luc cells) was found to be 0.071 nM; in data set [2] (Table 3, BHK amylin 3(a)-receptor/CRE-luc cells), 0.071 nM; in data set [2] (Table 4) it was 0.071 nM; in data set [2] (Table 6, human amylin receptor), 0.071 nM; in data set [2] (Table 7, human amylin receptor), 0.071 nM; in data set [2] (Table 11), 0.071 nM. Besides, the EC50 in data set [3] (setting [5]) is 0.085 nM; in data set [3] (Table 11, read-out: CTa receptor human EC50) it was 0.085 nM. Also, the solubility in data set [4] (pH 3, pH 3.0, read-out: Solubility pH 3.0) was more than 200 µM; in data set [4] (pH 4, pH 4.0, 18 hours at room temperature, Table 2, read-out: Solubility pH 4.0), more than 200 µM; in data set [4] (pH 4, pH 4.0, read-out: Solubility pH 4.0), more than 200 µM; in data set [4] (pH 5, pH 5.0, read-out: Solubility pH 5.0), more than 200 µM; in data set [4] (pH 6, pH 6.0, read-out: Solubility pH 6.0) it was more than 200 µM; in data set [4] (pH 6.5, pH 6.5, read-out: Solubility pH 6.5) it was more than 200 µM. In addition, the solubility is more than 200 µM in data set [4] (pH 7, pH 7.0, 18 hours at room temperature, Table 3, read-out: Solubility pH 7.0); more than 200 µM in data set [4] (pH 7, pH 7.0, read-out: Solubility pH 7.0); more than 200 µM in data set [4] (pH 7.5, pH 7.5, read-out: Solubility pH 7.5); more than 200 µM in data set [4] (pH 8, pH 8.0, read-out: Solubility pH 8.0).
